Test results as given in patent US10016439B2, “Fused imidazole compounds” (ONO PHARMACEUTICAL CO., LTD., priority 2014, dated 2018).
pKi: −log10 of the molar value.

How the values were obtained:
GABAA α1/β3/γ2 = GABAA α1/β3/γ2 (Homo sapiens (Human), UniProt P14867+P18507); experiment: Functional assay (PatchXpress automated patch-clamp), α1 subtype; assay type: cell-based; conditions: % change of GABA EC20 response; compound 1 μM; HEK293 cells
Text: (§1) GABAA α5/β3/γ2 HEK293 cell line was used throughout the functional assay in PatchXpress (Molecular Devices), the automated patch-clamp system. Cells stably expressing the appropriate GABAA subtype (α5/β3/γ2, α1/β3/γ2, α2/β3/γ2 or α3/β3/γ2) were dissociated from poly-D-lysine treated tissue culture flasks using a mixture of one part TrypLE (Invitrogen, cat #12604): one part Dulbecco's Phosphate Buffered Saline (Invitrogen, cat #14190). The dissociated cells were re-suspended in growth media (D-MEM/F-12 media (Invitrogen, cat #11320) supplemented with 10% (v/v) Foetal Bovine Serum (Invitrogen, cat #10082) and 1% (v/v) non-essential amino acids (Invitrogen, cat #11140)) and allowed to recover for one hour at 37° C. in a humidified incubator with 5% CO2. At the end of the recovery period cells were centrifuged at 1,000 rpm for two minutes and the resulting pellet re-suspended in external solution (in mM; 137 NaCl, 4 KCl, 10 HEPES, 1.8 CaCl2, 1 MgCl2, 10 glucose, pH set to 7.35 with NaOH). Cells were counted and diluted to 2.5×10^6/ml in external solution. The patch-clamp assay protocol involved determination of current amplitude with control applications of GABA EC20 containing concentration-matched DMSO (0.3% v/v), then pre-incubation of the test compound for one minute prior to the addition of the same compound diluted with the GABA EC20. Compound and/or GABA was applied for five seconds, with two minute wash periods between applications. No wash period was present at the end of the compound pre-application stage. The internal solution comprised (in mM) 90 KCl, 50 KF, 11 EGTA, 10 HEPES, 1 MgCl2, 2 Mg-ATP, the pH was set to 7.35 with KOH and the holding potential was −60 mV. Compounds were assayed at a concentration of 1 μM.

Lister Hooded rat = experiment: Rat Novel Object Recognition test; assay type: in vivo; conditions: 20 mg/kg p.o., 30 min prior to T1 and T2; 24 hr delay
Text: NOR (Novel Object Recognition test) is a two-trial spontaneous test of visual recognition memory that relies on the animal's natural tendency to explore novelty (Behav Brain Res, 1998, 31(1): pp. 47-59). Variation of the inter-trial interval (ITI) between acquisition (T1) and retention trials (T2) may be used to investigate either deficits or improvements in memory. A temporal performance deficit can be induced by increasing the ITI (approximately 24 hr), such that exploration of both objects in T2 is similar, enabling the pro-cognitive abilities of novel compounds to be evaluated.
Male, Lister Hooded rat (228-273 g at start of study; Harlan UK) was used.
Habituation to the grey, matt perspex NOR box twice a day, on two consecutive days, prior to testing. Each habituation session, consisted of a 3 min exposure to the empty test box (46×30×45 cm), followed by 1 min in the side annex (13×30×45 cm), and then a further 3 min in the test area. […]
Experimental protocol tests for improvement in attention/recognition memory via reversal of a 24 h delay-induced deficit in NOR. […] All performance measures were determined for each individual animal before statistical handling.
The T1 score, d1 and d2 index were analysed using 2-way ANOVA (treatment×object) followed by planned comparisons post-hoc LSD using single measure parametric analysis, based on least square (predicted) means in InVivoStat, UK.

GABAA α5/β3/γ2 [1] = molecular target: T1, GABAA α5/β3/γ2 (Homo sapiens (Human), UniProt P18507+P31644); experiment: Binding assay (Scintillation Proximity Assay, [3H]-Ro15-1788); conditions: membranes of HEK293 cells expressing GABAA α5/β3/γ2
T1 sequence (P31644 32-462): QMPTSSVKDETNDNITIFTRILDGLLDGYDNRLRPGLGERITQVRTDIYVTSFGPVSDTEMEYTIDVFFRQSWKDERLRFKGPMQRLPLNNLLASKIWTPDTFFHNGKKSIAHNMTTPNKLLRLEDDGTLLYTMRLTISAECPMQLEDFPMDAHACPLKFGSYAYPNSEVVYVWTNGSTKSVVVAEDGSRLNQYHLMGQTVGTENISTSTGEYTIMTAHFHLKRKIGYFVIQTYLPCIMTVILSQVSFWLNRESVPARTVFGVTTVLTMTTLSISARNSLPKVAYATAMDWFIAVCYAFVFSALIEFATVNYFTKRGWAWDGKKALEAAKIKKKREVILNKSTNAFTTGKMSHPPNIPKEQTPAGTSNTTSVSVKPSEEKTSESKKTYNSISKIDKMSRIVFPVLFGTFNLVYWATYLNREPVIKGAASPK
T1 sequence (P28472 26-473 partner): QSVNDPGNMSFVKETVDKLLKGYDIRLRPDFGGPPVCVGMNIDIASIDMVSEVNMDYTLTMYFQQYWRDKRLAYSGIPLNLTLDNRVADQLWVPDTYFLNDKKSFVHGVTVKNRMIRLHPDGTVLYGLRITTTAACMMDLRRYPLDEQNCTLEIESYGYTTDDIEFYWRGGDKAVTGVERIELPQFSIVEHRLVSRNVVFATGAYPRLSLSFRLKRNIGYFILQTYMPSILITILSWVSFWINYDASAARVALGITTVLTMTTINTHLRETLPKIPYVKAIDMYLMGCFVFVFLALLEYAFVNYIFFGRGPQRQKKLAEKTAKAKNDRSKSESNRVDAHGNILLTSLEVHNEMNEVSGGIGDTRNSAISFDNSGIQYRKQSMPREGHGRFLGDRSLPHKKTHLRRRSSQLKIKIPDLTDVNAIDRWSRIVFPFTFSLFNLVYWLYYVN
T1 sequence (P18507 40-475): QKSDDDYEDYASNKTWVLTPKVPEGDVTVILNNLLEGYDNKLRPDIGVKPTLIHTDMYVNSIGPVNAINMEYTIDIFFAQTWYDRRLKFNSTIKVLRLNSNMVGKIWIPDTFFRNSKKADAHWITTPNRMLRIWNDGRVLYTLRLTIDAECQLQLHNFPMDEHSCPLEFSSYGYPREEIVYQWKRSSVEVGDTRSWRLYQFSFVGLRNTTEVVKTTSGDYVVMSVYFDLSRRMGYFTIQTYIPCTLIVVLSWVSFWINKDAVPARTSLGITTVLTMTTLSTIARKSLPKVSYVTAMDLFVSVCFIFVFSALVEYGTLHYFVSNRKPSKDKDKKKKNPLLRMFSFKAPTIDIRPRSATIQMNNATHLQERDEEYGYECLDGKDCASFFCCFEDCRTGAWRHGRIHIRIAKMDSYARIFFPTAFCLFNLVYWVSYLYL
Procedure: The GABAAα5/β3/γ2 protein used for the Scintillation Proximity Assay was derived from membranes produced from HEK293 GABAA α5/β3/γ2 expressing HEK293 cell line. HEK293 GABAA α5/β3/γ2 expressing HEK293 cell line was cultured, then harvested and centrifuged the cells. Membranes were produced by homogenization of the cell pellet with a tissue homogenizer. The resulting homogenate was centrifuged at 48,000 g for 30 minutes, re-suspended and washed twice with 10 mM potassium phosphate buffer, pH 7.4. Final resuspension of membranes took place in buffer containing 10 mM potassium phosphate and 100 mM KCl.
For assay, test compound (50×) was added 0.5 μl per well to a white-walled clear-bottomed 384-well plate.
Full signal controls were prepared by the addition of 0.5 μl of DMSO to the appropriate wells. Mixture of 10 μl of protein and 10 μl of PVT-WGA beads (0.2 mg/well) were added to the plate. Both protein and bead were diluted to the desired concentration with 10 mM potassium phosphate, pH 7.4, containing 100 mM KCl. The plate was pre-incubated for 30 minutes at room temperature with shaking before initiation of the reaction by the addition of radioligand. 5 μl of [^3H]-Ro15-1788 was added at a concentration of 30 nM (5×) and the plates sealed. The reaction mix was incubated at room temperature overnight with gentle agitation on a plate shaker. The final DMSO concentration for all phases of the screening was 2% (v/v). At the end of the overnight incubation, the plates were centrifuged for two minutes at 1,000 rpm prior to reading on a Perkin Elmer Microbeta.
Concentration-response testing was performed in duplicate and the percent effect calculated for each replicate data point. The raw data was entered in Activity Base and the curves were fitted to the mean data using Excel and XL Fit, and shown as Ki.

GABAA α5/β3/γ2 [2] = molecular target: T1, GABAA α5/β3/γ2; experiment: Functional assay (PatchXpress automated patch-clamp), α5 subtype; assay type: cell-based; conditions: % change of GABA EC20 response; compound 1 μM; HEK293 cells
Text: as §1

Sequence of GABAA α1/β3/γ2 (P14867 28-456): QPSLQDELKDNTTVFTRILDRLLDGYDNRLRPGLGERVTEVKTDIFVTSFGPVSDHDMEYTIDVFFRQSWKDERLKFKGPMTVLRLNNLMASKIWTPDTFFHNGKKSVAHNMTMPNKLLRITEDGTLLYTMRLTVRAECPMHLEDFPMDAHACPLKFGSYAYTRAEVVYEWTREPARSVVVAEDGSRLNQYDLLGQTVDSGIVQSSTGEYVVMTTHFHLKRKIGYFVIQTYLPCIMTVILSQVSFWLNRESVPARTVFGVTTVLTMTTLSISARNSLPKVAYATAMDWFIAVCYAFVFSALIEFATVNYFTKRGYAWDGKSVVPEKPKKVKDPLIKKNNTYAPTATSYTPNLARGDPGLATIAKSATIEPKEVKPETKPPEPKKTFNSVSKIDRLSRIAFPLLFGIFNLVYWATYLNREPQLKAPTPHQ
Sequence of GABAA α1/β3/γ2 (P28472 26-473 partner): as the sequence (P28472 26-473 partner) above
Sequence of GABAA α1/β3/γ2 (P18507 40-475): as the sequence (P18507 40-475) above

Cc1cc(Nc2cc3c(cc2Cl)N(C)C(=O)CO3)nc2c1ncn2CC1CC1 [Example 160, 6-Chloro-7-((3-(cyclopropylmethyl)-7-methyl-3H-imidazo[4,5-b]pyridin-5-yl)amino)-4-methyl-2H-benzo[b][1,4]oxazin-3(4H)-one]
inhibition at 1 µM (GABAA α1/β3/γ2): 9.8%
d2 index score (performance in NOR) (Lister Hooded rat): significantly improved performance
pKi (GABAA α5/β3/γ2 [1]): 9.05
inhibition at 1 µM (GABAA α5/β3/γ2 [2]): 42.5%
